The results in this text go back to US11110082B2, “Tyrosine kinase inhibitors” (Rigel Pharmaceuticals, Inc., priority 2016, dated 2021).

For this assay, the target named is T1, MerTK (Homo sapiens, UniProt Q12866).
T1 construct: Seed HUVECs (10K cells/well) in EBM-2 complete media; host or cells: HUVEC (primary human umbilical vein endothelial cells)
T1 sequence (Q12866 21-999): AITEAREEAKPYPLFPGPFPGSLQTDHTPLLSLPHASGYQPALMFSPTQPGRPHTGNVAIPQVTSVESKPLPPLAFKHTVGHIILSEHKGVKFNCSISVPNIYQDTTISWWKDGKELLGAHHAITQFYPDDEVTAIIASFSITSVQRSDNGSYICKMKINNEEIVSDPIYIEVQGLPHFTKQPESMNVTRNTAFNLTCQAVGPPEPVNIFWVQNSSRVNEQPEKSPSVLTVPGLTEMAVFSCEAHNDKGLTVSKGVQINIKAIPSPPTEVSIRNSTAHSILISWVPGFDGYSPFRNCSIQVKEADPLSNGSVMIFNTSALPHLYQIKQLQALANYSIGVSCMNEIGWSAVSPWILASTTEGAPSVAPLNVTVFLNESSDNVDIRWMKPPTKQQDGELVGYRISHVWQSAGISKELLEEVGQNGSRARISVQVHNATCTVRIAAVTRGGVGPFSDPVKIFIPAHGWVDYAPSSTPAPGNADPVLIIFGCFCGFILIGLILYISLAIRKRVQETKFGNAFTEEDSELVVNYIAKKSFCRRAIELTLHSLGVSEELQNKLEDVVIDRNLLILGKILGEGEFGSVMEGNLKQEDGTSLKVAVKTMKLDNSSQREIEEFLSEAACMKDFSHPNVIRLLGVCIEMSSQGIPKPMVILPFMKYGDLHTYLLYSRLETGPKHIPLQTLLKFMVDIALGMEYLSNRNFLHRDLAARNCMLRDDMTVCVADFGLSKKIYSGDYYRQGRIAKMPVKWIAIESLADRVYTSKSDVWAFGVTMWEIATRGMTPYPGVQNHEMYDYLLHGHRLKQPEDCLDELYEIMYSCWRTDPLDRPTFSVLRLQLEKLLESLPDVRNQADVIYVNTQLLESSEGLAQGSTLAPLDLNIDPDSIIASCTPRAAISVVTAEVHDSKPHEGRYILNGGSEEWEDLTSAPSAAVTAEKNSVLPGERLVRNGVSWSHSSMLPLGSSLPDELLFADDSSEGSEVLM
The assay can be described thus: PAKT HTRF-HUVEC assay (pAkt Ser473 HTRF after anti-human MerTK-XL stimulation). Type of assay: cell-based. As to conditions: HUVEC cells, 1 hour compound, stimulated with anti-human MerTK-XL 1 ug/mL for 10 minutes, read-out: inhibition of MerTK. The method, boiled down:
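Akt Ser473 phosphorylation measured by HTRF in lysates of serum-starved HUVECs. Cells received compound for 1 h at 37° C before a 10-min challenge with antibody-cross-linked anti-MerTK (1 ug/mL final); EC50 derived by curve fit.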
Turning to `CC(C)CCNc1ncc2c3ccc(CN4CCN(C)CC4)cc3c(=O)n([C@H]3CC[C@H](O)CC3)c2n1` [Compound 129], the EC50 was 45.9 nM.

As for `CC(C)CNc1ncc2c3ccc(CN4CCN(C)CC4)cc3c(=O)n([C@H]3CC[C@H](O)CC3)c2n1` [Compound 130, trans-5-(4-hydroxycyclohexyl)-3-(isobutylamino)-8-((4-methylpiperazin-1-yl)methyl)pyrimido[4,5-c]isoquinolin-6(5H)-one], the EC50 was 51.2 nM. As to `CCCCNc1ncc2c3ccc(CN4CCN(C)CC4)cc3c(=O)n([C@H]3CC[C@H](C(N)=O)CC3)c2n1` [Compound 131, trans-4-(3-(Butylamino)-8-((4-methylpiperazin-1-yl)methyl)-6-oxopyrimido[4,5-c]isoquinolin-5(6H)-yl)cyclohexane-1-carboxamide], the EC50 was 54.6 nM.

Consider `CCCCNc1ncc2c3ccc(CN4CCN(C)CC4)cc3c(=O)n([C@H]3CC[C@H](C(=O)O)CC3)c2n1` [Compound 132, trans-4-(3-(Butylamino)-8-((4-methylpiperazin-1-yl)methyl)-6-oxopyrimido[4,5-c]isoquinolin-5(6H)-yl)cyclohexane-1-carboxylic Acid], for which the EC50 was found to be 1550 nM.

Consider `CN1CCN(Cc2ccc3c(c2)c(=O)n(C2CCOCC2)c2nc(NCC4CC4)ncc32)CC1` [Compound 133], for which the EC50 was found to be 1670 nM. Take `CN1CCN(Cc2ccc3c(c2)c(=O)n([C@H]2CC[C@H](C(N)=O)CC2)c2nc(NCC4CC4)ncc32)CC1` [Compound 134, trans-4-(3-((Cyclopropylmethyl)amino)-8-((4-methylpiperazin-1-yl)methyl)-6-oxopyrimido[4,5-c]isoquinolin-5(6H)-yl)cyclohexane-1-carboxamide]: the EC50 was found to be 347 nM. Take `CN1CCN(Cc2ccc3c(c2)c(=O)n([C@H]2CC[C@H](C(=O)O)CC2)c2nc(NCC4CC4)ncc32)CC1` [Compound 135, trans-4-(3-((Cyclopropylmethyl)amino)-8-((4-methylpiperazin-1-yl)methyl)-6-oxopyrimido[4,5-c]isoquinolin-5(6H)-yl)cyclohexane-1-carboxylic Acid]: the EC50 was found to be 4040 nM. For the molecule `CN1CCC(n2c(=O)c3cc(CN4CCN(C)CC4)ccc3c3cnc(NCC4CC4)nc32)CC1` [Compound 136], the EC50 was found to be 320 nM.

With `CN1CCN(Cc2ccc3c(c2)c(=O)n([C@H]2CC[C@H](O)CC2)c2nc(NC4CCC4)ncc32)CC1` [Compound 137, trans-3-(cyclobutylamino)-5-(4-hydroxycyclohexyl)-8-((4-methylpiperazin-1-yl)methyl)pyrimido[4,5-c]isoquinolin-6(5H)-one], the EC50 is 19.6 nM. As to `CCCCNc1ncc2c3ccc(CN4CCN(C)CC4)cc3c(=O)n([C@H]3CC[C@H](C(=O)NC)CC3)c2n1` [Compound 138, trans-4-(3-(Butylamino)-8-((4-methylpiperazin-1-yl)methyl)-6-oxopyrimido[4,5-c]isoquinolin-5(6H)-yl)-N-methylcyclohexane-1-carboxamide], the EC50 is 68.8 nM. The value for `CCCCNc1ncc2c3ccc(CN4CCN(C)CC4)cc3c(=O)n([C@H]3CC[C@H](C(=O)NCC(F)(F)F)CC3)c2n1` [Compound 139, trans-4-(3-(Butylamino)-8-((4-methylpiperazin-1-yl)methyl)-6-oxopyrimido[4,5-c]isoquinolin-5(6H)-yl)-N-(2,2,2-trifluoroethyl)cyclohexane-1-carboxamide] was 134 nM; that for `CCCCNc1ncc2c3ccc(CN4CCN(C)CC4)cc3c(=O)n([C@H]3CC[C@H](C(=O)NC4COC4)CC3)c2n1` [Compound 140, trans-4-(3-(Butylamino)-8-((4-methylpiperazin-1-yl)methyl)-6-oxopyrimido[4,5-c]isoquinolin-5(6H)-yl)-N-(oxetan-3-yl)cyclohexane-1-carboxamide] was 147 nM.
